According to article PMC9743094, “Synthesis and Evaluation of Polymyxins Bearing Reductively Labile Disulfide-Linked Lipids” (Journal of Medicinal Chemistry, 2022):
≈ marks a conversion by molar mass, not a printed value. Positions of bridges follow the written chain, without caps; N, C: chain ends. Non-standard residues stand in square brackets, D forms with d. Residues, ends and D or L forms follow the SMILES beside them. *: point of attachment. Phenylthio(4-OPh) = c1ccc(Oc2ccc(S*)cc2)cc1; S(2-cyclohexylethyl) = C1CCC(CCS*)CC1; S(3-Methylbutyl) = CC(C)CCS*; X6 = c1ccc(-c2ccc(S*)cc2)cc1; Dab = NCC[C@H](N)C(=O)O; X1 = CC(C)CCCCS*; X4 = CCCCCCS*

Columns and labels:
[1] = system: E. coli (ATCC 25922); format: cell-based; settings: ATCC 25922
Experimental: (§1) Minimum inhibitory concentrations (MICs) on relevant Gram-negative bacteria were determined by broth microdilution, in accordance with CLSI guidelines. Indicated bacteria were taken from glycerol stocks and incubated overnight on blood agar at 37 °C. Well-isolated colonies were taken, suspended in TSB (5 mL), and grown to an OD600 of 0.5. Compounds to be tested were dissolved in DMSO (6.4 mg/mL), diluted in cation-adjusted Mueller–Hinton Broth (CAMHB) (12.5 and 20 μg/mL Mg^2+ and Ca^2+, respectively), and diluted serially on polypropylene microtiter plates. To the diluted compounds (50 μL per well) was added 50 μL of relevant bacterial suspension, to yield a final concentration of 10^6 CFU/mL. Plates were covered by adhesive gas-permeable membranes and incubated at 37 °C. MIC was read out as the lowest concentration that inhibited visual bacterial growth. Shown values are consistent results from at least duplicate experiments.

[2] = system: K. pneumoniae (ATCC 13883); format: cell-based; settings: ATCC 13883
Experimental: as §1

[3] = system: P. aeruginosa (ATCC 27853); format: cell-based; settings: ATCC 27853
Experimental: as §1

[4] = system: A. baumannii (ATCC 19606); format: cell-based; settings: ATCC 19606
Experimental: as §1

[5] = system: differentiated conditionally immortalized PTECs (ciPTECs, OAT-1); assay: ciPTEC toxicity assay (PrestoBlue); format: cell-based, human
Experimental: ciPTECs (OAT-1) cells,[52],[53] grown to 90–100% confluence, were washed by Hanks’ balanced salt solution (HBSS; Gibco, Life Technologies, Paisley, U.K.) and detached by accutase (4 mL) for 5 min at 37 °C. The cells were then suspended in fresh medium (DMEM/F-12, supplemented with 10% fetal calf serum, insulin (5 μg/mL), transferrin (5 μg/mL), selenium (5 μg/mL) hydrocortisone (35 ng/mL), Epidermal Growth Factor (10 ng/mL) and tri-iodothyronine (40 pg/mL)). Cell density was adjusted to 2.0 × 10^5 cells/mL, of which 100 μL was added to each well of a 96-well plate. The cells were incubated for 24 h at 33 °C, followed by 6 days at 37 °C, in a humidified atmosphere containing 5% (v/v) CO2. The medium was refreshed every second or third day.
Compounds were dissolved and serially diluted in serum-free medium. Differentiated cells were washed once with HBSS and serially diluted compounds (80 μL/well) were transferred to the ciPTEC-containing plate. Compounds were incubated for 24 h at 37 °C; the cells were washed by HBSS, followed by incubation with 10% PrestoBlue cell viability reagent (Thermo Scientific, Vienna, Austria) in HBSS at 37 °C in the dark. Fluorescence was recorded (excitation: 530 nm, emission: 590 nm). Raw data are corrected for PrestoBlue background fluorescence and reported relative to the no-treatment control (cells with medium only). Viability data were fitted with GraphPad Prism software (version 5.03; GraphPad Software, La Jolla, CA), by nonlinear regression with 0 as bottom constraint. Presented data are based on triplicates.
Toxicity assessment on PTECs
Table S1. TC50 values for polymyxin analogues. Toxicity assessment on proximal tubular epithelial cells
performed using PrestoBlue™ assay. TC50 values are derived after non-linear regression analysis on cell viability
correspond to data obtained from 2 different batches of cells/analyses on different days. As the value for
polymyxin B differs 2-fold, values in the manuscript are presented relative to the polymyxin B value.
Compound TC50 (µ M) Compound TC50 (µ M)
Polymyxin B 80 Polymyxin B 41
Figure S3. Representative traces of ciPTECs’ viability after incubation with analogues for 24 hours. Shown data are based on […]

Compound | MIC E. coli (ATCC 25922) [1] | MIC K. pneumoniae (ATCC 13883) [2] | MIC P. aeruginosa (ATCC 27853) [3] | MIC A. baumannii (ATCC 19606) [4] | TC50, Day 1 [5] | ciPTEC Toxicity Index (relative to polymyxin B) [5]
CC(C)C[C@@H]1NC(=O)[C@@H](Cc2ccccc2)NC(=O)[C@H](CCN)NC(=O)[C@@H](NC(=O)[C@H](CCN)NC(=O)[C@@H](NC(=O)[C@@H](N)CSSCCC2CCCCC2)[C@@H](C)O)CCNC(=O)[C@H]([C@@H](C)O)NC(=O)[C@H](CCN)NC(=O)[C@H](CCN)NC1=O [Compound 19a] (H-C(S(2-cyclohexylethyl))T[Dab][Dab][Dab][dF]L[Dab][Dab]T; lactam 4-C) | 8 µg/mL (≈ 6.62 µM) | 4 µg/mL (≈ 3.31 µM) | 4 µg/mL (≈ 3.31 µM) | 32 µg/mL (≈ 26.5 µM) |  | 
CC(C)CCCCSSC[C@H](N)C(=O)N[C@H](C(=O)N[C@@H](CCN)C(=O)N[C@H]1CCNC(=O)[C@H]([C@@H](C)O)NC(=O)[C@H](CCN)NC(=O)[C@H](CCN)NC(=O)[C@H](CC(C)C)NC(=O)[C@@H](Cc2ccccc2)NC(=O)[C@H](CCN)NC1=O)[C@@H](C)O [Compound 20a] (H-C(X1)T[Dab][Dab][Dab][dF]L[Dab][Dab]T; lactam 4-C) | 2 µg/mL (≈ 1.67 µM) | 1 µg/mL (≈ 0.836 µM) | 2 µg/mL (≈ 1.67 µM) | 4 µg/mL (≈ 3.34 µM) |  | 
CCCCCCSSC[C@H](NC(=O)CN)C(=O)N[C@H](C(=O)N[C@@H](CCN)C(=O)N[C@H]1CCNC(=O)[C@H]([C@@H](C)O)NC(=O)[C@H](CCN)NC(=O)[C@H](CCN)NC(=O)[C@H](CC(C)C)NC(=O)[C@@H](Cc2ccccc2)NC(=O)[C@H](CCN)NC1=O)[C@@H](C)O [Compound 21a] (H-GC(X4)T[Dab][Dab][Dab][dF]L[Dab][Dab]T; lactam 5-C) | 4 µg/mL (≈ 3.23 µM) | 1 µg/mL (≈ 0.807 µM) | 2 µg/mL (≈ 1.61 µM) | 2 µg/mL (≈ 1.61 µM) |  | 
CC(C)CCSSC[C@H](NC(=O)CN)C(=O)N[C@H](C(=O)N[C@@H](CCN)C(=O)N[C@H]1CCNC(=O)[C@H]([C@@H](C)O)NC(=O)[C@H](CCN)NC(=O)[C@H](CCN)NC(=O)[C@H](CC(C)C)NC(=O)[C@@H](Cc2ccccc2)NC(=O)[C@H](CCN)NC1=O)[C@@H](C)O [Compound 22a] (H-GC(S(3-Methylbutyl))T[Dab][Dab][Dab][dF]L[Dab][Dab]T; lactam 5-C) |  | 2 µg/mL (≈ 1.63 µM) | 2 µg/mL (≈ 1.63 µM) | 4 µg/mL (≈ 3.26 µM) | 305 µM | 3.8
CC(C)C[C@@H]1NC(=O)[C@@H](Cc2ccccc2)NC(=O)[C@H](CCN)NC(=O)[C@@H](NC(=O)[C@H](CCN)NC(=O)[C@@H](NC(=O)[C@@H](N)CSSc2ccc(-c3ccccc3)cc2)[C@@H](C)O)CCNC(=O)[C@H]([C@@H](C)O)NC(=O)[C@H](CCN)NC(=O)[C@H](CCN)NC1=O [Compound 29a] (H-C(X6)T[Dab][Dab][Dab][dF]L[Dab][Dab]T; lactam 4-C) | 4 µg/mL (≈ 3.2 µM) | 4 µg/mL (≈ 3.2 µM) | 8 µg/mL (≈ 6.4 µM) | 32 µg/mL (≈ 25.6 µM) |  | 
CC(C)C[C@@H]1NC(=O)[C@@H](Cc2ccccc2)NC(=O)[C@H](CCN)NC(=O)[C@@H](NC(=O)[C@H](CCN)NC(=O)[C@@H](NC(=O)[C@H](N)CSSc2ccc(-c3ccccc3)cc2)[C@@H](C)O)CCNC(=O)[C@H]([C@@H](C)O)NC(=O)[C@H](CCN)NC(=O)[C@H](CCN)NC1=O [Compound 29b] (H-[dC](X6)T[Dab][Dab][Dab][dF]L[Dab][Dab]T; lactam 4-C) | 8 µg/mL (≈ 6.4 µM) | 2 µg/mL (≈ 1.6 µM) | 8 µg/mL (≈ 6.4 µM) | 8 µg/mL (≈ 6.4 µM) |  | 
CC(C)C[C@@H]1NC(=O)[C@@H](Cc2ccccc2)NC(=O)[C@H](CCN)NC(=O)[C@@H](NC(=O)[C@H](CCN)NC(=O)[C@@H](NC(=O)[C@H](N)CSSc2ccc(Oc3ccccc3)cc2)[C@@H](C)O)CCNC(=O)[C@H]([C@@H](C)O)NC(=O)[C@H](CCN)NC(=O)[C@H](CCN)NC1=O [Compound 30b] (H-[dC](Phenylthio(4-OPh))T[Dab][Dab][Dab][dF]L[Dab][Dab]T; lactam 4-C) | 4 µg/mL (≈ 3.16 µM) | 2 µg/mL (≈ 1.58 µM) | 4 µg/mL (≈ 3.16 µM) | 4 µg/mL (≈ 3.16 µM) |  | 
CC(C)C[C@@H]1NC(=O)[C@@H](Cc2ccccc2)NC(=O)[C@H](CCN)NC(=O)[C@@H](NC(=O)[C@H](CCN)NC(=O)[C@@H](N)[C@@H](C)O)CCNC(=O)[C@H]([C@@H](C)O)NC(=O)[C@H](CCN)NC(=O)[C@H](CCN)NC1=O [PMBN, polymyxin B nonapeptide, reference compound] (H-T[Dab][Dab][Dab][dF]L[Dab][Dab]T; lactam 3-C) | >32 µg/mL | >32 µg/mL | >32 µg/mL | >32 µg/mL |  | 

Now from value to molecule, other results behind:

MIC E. coli (ATCC 25922) [1] | MIC K. pneumoniae (ATCC 13883) [2] | MIC P. aeruginosa (ATCC 27853) [3] | MIC A. baumannii (ATCC 19606) [4] | Compound | TC50, Day 1 [5] | ciPTEC Toxicity Index (relative to polymyxin B) [5]
4 µg/mL (≈ 3.16 µM) | 4 µg/mL (≈ 3.16 µM) | 4 µg/mL (≈ 3.16 µM) | >32 µg/mL | CC(C)C[C@@H]1NC(=O)[C@@H](Cc2ccccc2)NC(=O)[C@H](CCN)NC(=O)[C@@H](NC(=O)[C@H](CCN)NC(=O)[C@@H](NC(=O)[C@@H](N)CSSc2ccc(Oc3ccccc3)cc2)[C@@H](C)O)CCNC(=O)[C@H]([C@@H](C)O)NC(=O)[C@H](CCN)NC(=O)[C@H](CCN)NC1=O [Compound 30a] (H-C(Phenylthio(4-OPh))T[Dab][Dab][Dab][dF]L[Dab][Dab]T; lactam 4-C) |  | 
4 µg/mL (≈ 3.06 µM) | 2 µg/mL (≈ 1.53 µM) | 8 µg/mL (≈ 6.12 µM) | 16 µg/mL (≈ 12.2 µM) | CC(C)C[C@@H]1NC(=O)[C@@H](Cc2ccccc2)NC(=O)[C@H](CCN)NC(=O)[C@@H](NC(=O)[C@H](CCN)NC(=O)[C@@H](NC(=O)[C@H](CSSc2ccc(-c3ccccc3)cc2)NC(=O)CN)[C@@H](C)O)CCNC(=O)[C@H]([C@@H](C)O)NC(=O)[C@H](CCN)NC(=O)[C@H](CCN)NC1=O [Compound 31a] (H-GC(X6)T[Dab][Dab][Dab][dF]L[Dab][Dab]T; lactam 5-C) |  | 
8 µg/mL (≈ 6.12 µM) | 4 µg/mL (≈ 3.06 µM) | 8 µg/mL (≈ 6.12 µM) | 16 µg/mL (≈ 12.2 µM) | CC(C)C[C@@H]1NC(=O)[C@@H](Cc2ccccc2)NC(=O)[C@H](CCN)NC(=O)[C@@H](NC(=O)[C@H](CCN)NC(=O)[C@@H](NC(=O)[C@@H](CSSc2ccc(-c3ccccc3)cc2)NC(=O)CN)[C@@H](C)O)CCNC(=O)[C@H]([C@@H](C)O)NC(=O)[C@H](CCN)NC(=O)[C@H](CCN)NC1=O [Compound 31b] (H-G[dC](X6)T[Dab][Dab][Dab][dF]L[Dab][Dab]T; lactam 5-C) |  | 
8 µg/mL (≈ 6.04 µM) | 4 µg/mL (≈ 3.02 µM) | 8 µg/mL (≈ 6.04 µM) | 32 µg/mL (≈ 24.2 µM) | CC(C)C[C@@H]1NC(=O)[C@@H](Cc2ccccc2)NC(=O)[C@H](CCN)NC(=O)[C@@H](NC(=O)[C@H](CCN)NC(=O)[C@@H](NC(=O)[C@H](CSSc2ccc(Oc3ccccc3)cc2)NC(=O)CN)[C@@H](C)O)CCNC(=O)[C@H]([C@@H](C)O)NC(=O)[C@H](CCN)NC(=O)[C@H](CCN)NC1=O [Compound 32a] (H-GC(Phenylthio(4-OPh))T[Dab][Dab][Dab][dF]L[Dab][Dab]T; lactam 5-C) |  | 
8 µg/mL (≈ 6.04 µM) | 4 µg/mL (≈ 3.02 µM) | 4 µg/mL (≈ 3.02 µM) | 8 µg/mL (≈ 6.04 µM) | CC(C)C[C@@H]1NC(=O)[C@@H](Cc2ccccc2)NC(=O)[C@H](CCN)NC(=O)[C@@H](NC(=O)[C@H](CCN)NC(=O)[C@@H](NC(=O)[C@@H](CSSc2ccc(Oc3ccccc3)cc2)NC(=O)CN)[C@@H](C)O)CCNC(=O)[C@H]([C@@H](C)O)NC(=O)[C@H](CCN)NC(=O)[C@H](CCN)NC1=O [Compound 32b] (H-G[dC](Phenylthio(4-OPh))T[Dab][Dab][Dab][dF]L[Dab][Dab]T; lactam 5-C) |  | 
